Laboratory results: US10844077B2, “Thiazolyl-containing compounds for treating proliferative diseases” (Dana-Farber Cancer Institute, Inc., priority 2014, dated 2020)
Like-named read-outs stand apart in the source and are kept apart here.

Experiments:
Assay type in all cases: binding
broad panel of kinases [1] = target: broad panel of kinases (Homo sapiens, UniProt Q15208); details: NDR1; 1 μM
broad panel of kinases [2] = target: broad panel of kinases (Homo sapiens, UniProt P30291); details: WEE1; 1 μM
broad panel of kinases [3] = target: broad panel of kinases (Homo sapiens, UniProt Q14680); details: MELK; 1 μM
broad panel of kinases [4] = target: broad panel of kinases (Homo sapiens, UniProt O75460); details: ERN1; 1 μM
Chain of broad panel of kinases (Homo sapiens, UniProt O75460) (O75460 19-977 limits assumed): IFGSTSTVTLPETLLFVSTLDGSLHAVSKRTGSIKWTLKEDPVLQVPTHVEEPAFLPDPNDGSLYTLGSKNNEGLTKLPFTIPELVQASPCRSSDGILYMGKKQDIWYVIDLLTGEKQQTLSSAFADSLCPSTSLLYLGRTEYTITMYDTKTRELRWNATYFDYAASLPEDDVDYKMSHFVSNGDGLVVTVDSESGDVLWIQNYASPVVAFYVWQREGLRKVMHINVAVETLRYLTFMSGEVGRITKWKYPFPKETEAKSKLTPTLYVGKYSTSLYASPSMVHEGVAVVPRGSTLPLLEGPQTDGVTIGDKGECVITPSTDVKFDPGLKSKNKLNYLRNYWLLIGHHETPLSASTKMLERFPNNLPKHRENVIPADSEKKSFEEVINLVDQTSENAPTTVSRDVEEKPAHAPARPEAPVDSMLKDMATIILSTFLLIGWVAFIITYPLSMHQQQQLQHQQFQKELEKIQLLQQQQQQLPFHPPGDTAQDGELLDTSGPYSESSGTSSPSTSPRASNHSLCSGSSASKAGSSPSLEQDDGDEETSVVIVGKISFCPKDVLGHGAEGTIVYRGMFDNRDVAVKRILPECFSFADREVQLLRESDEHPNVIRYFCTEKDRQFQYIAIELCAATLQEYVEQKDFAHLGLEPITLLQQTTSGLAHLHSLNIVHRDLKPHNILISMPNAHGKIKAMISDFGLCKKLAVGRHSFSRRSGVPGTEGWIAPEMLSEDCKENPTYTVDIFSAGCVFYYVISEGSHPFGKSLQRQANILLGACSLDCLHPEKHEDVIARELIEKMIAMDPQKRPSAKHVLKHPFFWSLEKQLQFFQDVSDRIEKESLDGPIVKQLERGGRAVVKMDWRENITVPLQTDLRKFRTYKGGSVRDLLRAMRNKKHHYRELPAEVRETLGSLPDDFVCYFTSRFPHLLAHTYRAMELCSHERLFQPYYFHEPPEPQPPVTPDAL

broad panel of kinases [5] = target: broad panel of kinases (Homo sapiens, UniProt P29376); details: LTK; 1 μM
broad panel of kinases [6] = target: broad panel of kinases (Homo sapiens, UniProt P00519, F317I); details: 1 μM
broad panel of kinases [7] = target: broad panel of kinases (Homo sapiens, UniProt Q9BQI3); details: EIF2AK1; 1 μM
broad panel of kinases [8] = target: broad panel of kinases (Homo sapiens, UniProt P51617); details: IRAK1; 1 μM
broad panel of kinases [9] = target: broad panel of kinases (Homo sapiens, UniProt Q00526); details: CDK3; 1 μM
broad panel of kinases [10] = target: broad panel of kinases (Homo sapiens, UniProt P19784); details: CSNK2A2; 1 μM
broad panel of kinases [11] = target: broad panel of kinases (Homo sapiens, UniProt P57059); details: SIK; 1 μM
broad panel of kinases [12] = target: broad panel of kinases (Homo sapiens, UniProt Q13882); details: BRK; 1 μM
broad panel of kinases [13] = target: broad panel of kinases (Homo sapiens, UniProt P12931); details: SRC; 1 μM
Chain of broad panel of kinases (Homo sapiens, UniProt P12931) (P12931 2-536 limits assumed): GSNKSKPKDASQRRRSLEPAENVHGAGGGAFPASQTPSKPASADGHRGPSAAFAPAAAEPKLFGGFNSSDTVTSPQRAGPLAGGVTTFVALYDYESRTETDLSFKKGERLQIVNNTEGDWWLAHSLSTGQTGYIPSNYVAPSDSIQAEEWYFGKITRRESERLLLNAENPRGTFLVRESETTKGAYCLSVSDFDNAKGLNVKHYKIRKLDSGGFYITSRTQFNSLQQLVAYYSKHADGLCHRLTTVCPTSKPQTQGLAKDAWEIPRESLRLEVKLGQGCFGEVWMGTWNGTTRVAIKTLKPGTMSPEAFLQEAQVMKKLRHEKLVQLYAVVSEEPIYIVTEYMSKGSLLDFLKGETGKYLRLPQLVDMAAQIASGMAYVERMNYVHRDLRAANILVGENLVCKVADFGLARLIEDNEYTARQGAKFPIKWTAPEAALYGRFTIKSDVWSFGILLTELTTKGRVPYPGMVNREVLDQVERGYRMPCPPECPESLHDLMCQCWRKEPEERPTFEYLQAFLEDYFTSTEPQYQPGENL

broad panel of kinases [14] = target: broad panel of kinases (Homo sapiens, UniProt Q9UHD2); details: TBK1; 1 μM
broad panel of kinases [15] = target: broad panel of kinases (Homo sapiens, UniProt P42336); details: PIK3CA; 1 μM
broad panel of kinases [16] = target: broad panel of kinases (Homo sapiens, UniProt P00533, L858R/T790M); details: EGFR(L858R, T790M); 1 μM
Chain of broad panel of kinases (Homo sapiens, UniProt P00533, L858R/T790M) (P00533 25-1210 T790M/L858R limits assumed): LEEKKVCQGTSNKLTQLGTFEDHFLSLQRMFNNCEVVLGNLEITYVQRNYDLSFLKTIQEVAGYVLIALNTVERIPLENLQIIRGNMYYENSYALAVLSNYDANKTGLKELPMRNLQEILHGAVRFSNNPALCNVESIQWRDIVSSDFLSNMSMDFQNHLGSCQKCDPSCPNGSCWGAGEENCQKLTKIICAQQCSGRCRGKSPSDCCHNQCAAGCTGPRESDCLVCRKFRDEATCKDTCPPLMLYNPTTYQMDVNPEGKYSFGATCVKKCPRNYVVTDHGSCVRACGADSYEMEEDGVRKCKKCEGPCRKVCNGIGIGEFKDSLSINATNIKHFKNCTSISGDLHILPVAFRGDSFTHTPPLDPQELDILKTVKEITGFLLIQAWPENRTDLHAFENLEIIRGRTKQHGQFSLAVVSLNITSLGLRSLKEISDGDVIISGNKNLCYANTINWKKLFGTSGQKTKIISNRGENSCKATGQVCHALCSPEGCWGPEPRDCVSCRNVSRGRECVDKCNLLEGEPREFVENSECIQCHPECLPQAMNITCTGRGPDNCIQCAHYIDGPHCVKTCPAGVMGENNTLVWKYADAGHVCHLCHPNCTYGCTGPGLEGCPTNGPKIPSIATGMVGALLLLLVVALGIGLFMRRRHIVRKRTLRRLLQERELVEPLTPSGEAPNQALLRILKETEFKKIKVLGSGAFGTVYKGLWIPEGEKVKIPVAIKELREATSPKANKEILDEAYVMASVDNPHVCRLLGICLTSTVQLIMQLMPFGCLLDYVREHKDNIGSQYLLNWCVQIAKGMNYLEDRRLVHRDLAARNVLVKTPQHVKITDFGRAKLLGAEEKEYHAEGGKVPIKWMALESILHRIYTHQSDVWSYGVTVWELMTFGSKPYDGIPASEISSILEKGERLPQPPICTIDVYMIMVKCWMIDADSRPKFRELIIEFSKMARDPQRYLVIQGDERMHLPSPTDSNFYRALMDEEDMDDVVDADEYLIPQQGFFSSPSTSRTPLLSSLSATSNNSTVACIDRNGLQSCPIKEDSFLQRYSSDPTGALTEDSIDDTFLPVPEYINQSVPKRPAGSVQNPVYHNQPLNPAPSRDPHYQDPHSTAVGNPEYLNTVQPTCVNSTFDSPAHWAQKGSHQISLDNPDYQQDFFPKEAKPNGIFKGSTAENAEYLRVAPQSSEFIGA

broad panel of kinases [17] = target: broad panel of kinases (Homo sapiens, UniProt P22607); details: FGFR3; 1 μM
Chain of broad panel of kinases (Homo sapiens, UniProt P22607) (P22607 23-806 limits assumed): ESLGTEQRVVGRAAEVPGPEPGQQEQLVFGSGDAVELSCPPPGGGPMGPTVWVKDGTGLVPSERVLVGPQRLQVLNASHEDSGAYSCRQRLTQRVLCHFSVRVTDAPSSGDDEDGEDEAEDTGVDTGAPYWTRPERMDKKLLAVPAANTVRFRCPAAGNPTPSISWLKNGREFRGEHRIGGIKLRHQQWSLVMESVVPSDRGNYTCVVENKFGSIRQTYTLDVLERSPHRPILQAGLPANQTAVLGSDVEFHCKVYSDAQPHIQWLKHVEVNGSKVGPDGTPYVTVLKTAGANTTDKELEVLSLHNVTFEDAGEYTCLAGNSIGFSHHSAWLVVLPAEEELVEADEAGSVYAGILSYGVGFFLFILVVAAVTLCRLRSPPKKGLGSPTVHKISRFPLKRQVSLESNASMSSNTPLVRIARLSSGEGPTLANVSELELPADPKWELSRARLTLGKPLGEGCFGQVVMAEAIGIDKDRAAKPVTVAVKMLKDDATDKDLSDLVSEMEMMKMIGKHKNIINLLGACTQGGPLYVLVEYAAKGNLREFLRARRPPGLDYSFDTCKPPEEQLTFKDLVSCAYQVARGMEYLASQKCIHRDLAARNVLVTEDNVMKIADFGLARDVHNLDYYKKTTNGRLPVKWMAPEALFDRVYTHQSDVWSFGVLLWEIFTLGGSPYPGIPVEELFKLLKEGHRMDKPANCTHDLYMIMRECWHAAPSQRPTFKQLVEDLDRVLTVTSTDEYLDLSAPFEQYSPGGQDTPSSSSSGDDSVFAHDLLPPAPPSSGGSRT

broad panel of kinases [18] = target: broad panel of kinases (Homo sapiens, UniProt Q9Y463); details: DYRK1B; 1 μM
broad panel of kinases [19] = target: broad panel of kinases (Homo sapiens, UniProt Q13976); details: PRKG1; 1 μM
broad panel of kinases [20] = target: broad panel of kinases (Homo sapiens, UniProt P06239); details: LCK; 1 μM
Chain of broad panel of kinases (Homo sapiens, UniProt P06239) (P06239 2-509 limits assumed): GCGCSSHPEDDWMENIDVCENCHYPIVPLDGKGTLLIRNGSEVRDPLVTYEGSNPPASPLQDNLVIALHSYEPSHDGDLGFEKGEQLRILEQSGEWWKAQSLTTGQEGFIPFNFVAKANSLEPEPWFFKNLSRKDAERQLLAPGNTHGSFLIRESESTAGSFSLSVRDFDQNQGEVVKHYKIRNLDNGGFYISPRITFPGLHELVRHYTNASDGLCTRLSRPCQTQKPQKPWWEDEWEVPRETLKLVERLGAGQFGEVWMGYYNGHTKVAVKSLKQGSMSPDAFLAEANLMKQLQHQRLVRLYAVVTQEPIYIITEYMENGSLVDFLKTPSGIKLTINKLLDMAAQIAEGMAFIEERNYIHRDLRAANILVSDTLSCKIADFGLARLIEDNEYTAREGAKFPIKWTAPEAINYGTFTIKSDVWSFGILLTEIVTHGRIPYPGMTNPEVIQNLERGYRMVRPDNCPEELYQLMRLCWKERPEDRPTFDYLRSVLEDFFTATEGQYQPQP

broad panel of kinases [21] = target: broad panel of kinases (Homo sapiens, UniProt Q8NG66); details: NEK11; 1 μM
broad panel of kinases [22] = target: broad panel of kinases (Homo sapiens, UniProt P45985); details: MEK4; 1 μM
Chain of broad panel of kinases (Homo sapiens, UniProt P45985) (P45985 2-399 limits assumed): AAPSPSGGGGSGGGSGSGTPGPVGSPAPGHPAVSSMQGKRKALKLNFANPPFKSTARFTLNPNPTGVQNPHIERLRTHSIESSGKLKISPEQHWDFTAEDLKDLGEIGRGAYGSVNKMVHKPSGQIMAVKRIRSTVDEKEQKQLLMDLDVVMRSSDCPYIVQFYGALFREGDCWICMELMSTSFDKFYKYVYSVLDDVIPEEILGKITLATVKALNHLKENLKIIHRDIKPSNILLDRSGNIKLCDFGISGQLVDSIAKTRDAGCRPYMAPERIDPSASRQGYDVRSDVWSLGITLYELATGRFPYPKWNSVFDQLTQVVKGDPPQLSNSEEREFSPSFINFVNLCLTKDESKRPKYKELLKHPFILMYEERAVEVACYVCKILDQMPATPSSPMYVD

broad panel of kinases [23] = target: broad panel of kinases (Homo sapiens, UniProt P24723); details: PRKCH; 1 μM
broad panel of kinases [24] = target: broad panel of kinases (Homo sapiens, UniProt P08581); details: MET; 1 μM
broad panel of kinases [25] = target: broad panel of kinases (Homo sapiens, UniProt P42336, E542K); details: PIK3CA(E542K); 1 μM
broad panel of kinases [26] = target: broad panel of kinases (Homo sapiens, UniProt Q96Q40)
broad panel of kinases [27] = target: broad panel of kinases (Homo sapiens, UniProt P54646); details: AMPK-alpha2; 1 μM
broad panel of kinases [28] = target: broad panel of kinases (Homo sapiens, UniProt P35968); details: VEGFR2; 1 μM
broad panel of kinases [29] = target: broad panel of kinases (Homo sapiens, UniProt P29323); details: EPHB2; 1 μM
broad panel of kinases [30] = target: broad panel of kinases (Homo sapiens, UniProt Q8TDC3); details: BRSK1; 1 μM
broad panel of kinases [31] = target: broad panel of kinases (Homo sapiens, UniProt P36888, R834Q); details: FLT3(R834Q); 1 μM
broad panel of kinases [32] = target: broad panel of kinases (Homo sapiens, UniProt P53779); details: JNK3; 1 μM
broad panel of kinases [33] = target: broad panel of kinases (Homo sapiens, UniProt Q13131); details: AMPK-alpha1; 1 μM
broad panel of kinases [34] = target: broad panel of kinases (Homo sapiens, UniProt Q8NEV4); details: MYO3A; 1 μM
broad panel of kinases [35] = target: broad panel of kinases (Homo sapiens, UniProt O14920); details: IKK-beta; 1 μM
broad panel of kinases [36] = target: broad panel of kinases (Homo sapiens, UniProt P35916); details: FLT4; 1 μM
broad panel of kinases [37] = target: broad panel of kinases (Homo sapiens, UniProt Q86UX6); details: YANK3; 1 μM

Chain of broad panel of kinases (Homo sapiens, UniProt Q15208) (Q15208 2-465 limits assumed): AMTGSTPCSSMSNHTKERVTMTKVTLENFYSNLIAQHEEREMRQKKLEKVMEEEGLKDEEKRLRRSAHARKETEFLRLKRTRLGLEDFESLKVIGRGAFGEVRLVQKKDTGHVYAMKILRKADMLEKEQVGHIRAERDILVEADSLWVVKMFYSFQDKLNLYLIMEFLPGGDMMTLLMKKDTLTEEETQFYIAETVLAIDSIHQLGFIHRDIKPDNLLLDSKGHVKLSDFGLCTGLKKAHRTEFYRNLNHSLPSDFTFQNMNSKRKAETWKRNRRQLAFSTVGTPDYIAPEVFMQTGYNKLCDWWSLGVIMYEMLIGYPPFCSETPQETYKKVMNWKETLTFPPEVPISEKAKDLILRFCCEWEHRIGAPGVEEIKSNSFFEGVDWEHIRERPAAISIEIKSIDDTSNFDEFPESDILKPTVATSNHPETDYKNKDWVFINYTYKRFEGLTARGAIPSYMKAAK

Row | Compound | percent of control binding remaining (lower = stronger binding) (broad panel of kinases [1]) | percent of control binding remaining (lower = stronger binding) (broad panel of kinases [2]) | percent of control binding remaining (lower = stronger binding) (broad panel of kinases [3]) | percent of control binding remaining (lower = stronger binding) (broad panel of kinases [4]) | percent of control binding remaining (lower = stronger binding) (broad panel of kinases [5]) | percent of control binding remaining (lower = stronger binding) (broad panel of kinases [7]) | percent of control binding remaining (lower = stronger binding) (broad panel of kinases [8]) | percent of control binding remaining (lower = stronger binding) (broad panel of kinases [9]) | percent of control binding remaining (lower = stronger binding) (broad panel of kinases [10]) | percent of control binding remaining (lower = stronger binding) (broad panel of kinases [11]) | percent of control binding remaining (lower = stronger binding) (broad panel of kinases [12]) | percent of control binding remaining (lower = stronger binding) (broad panel of kinases [13]) | percent of control binding remaining (lower = stronger binding) (broad panel of kinases [14]) | percent of control binding remaining (lower = stronger binding) (broad panel of kinases [15]) | percent of control binding remaining (lower = stronger binding) (broad panel of kinases [16]) | percent of control binding remaining (lower = stronger binding) (broad panel of kinases [18]) | percent of control binding remaining (lower = stronger binding) (broad panel of kinases [19]) | percent of control binding remaining (lower = stronger binding) (broad panel of kinases [21]) | percent of control binding remaining (lower = stronger binding) (broad panel of kinases [22]) | percent of control binding remaining (lower = stronger binding) (broad panel of kinases [23]) | other results
1 | C=CC(=O)N1CC[C@H](Nc2nc(CN3CCOCC3)cc(Nc3ncc(C(=O)Nc4c(C)cccc4C)s3)n2)C1 [Example I-2] | 63% | 93% | 84% | 83% | 100% | 100% | 84% | 73% | 57% | 0.8% | 1.6% | 0% | 89% | 100% | 48% | 94% | 100% | 83% | 100% | 97% | percent of control binding remaining (lower = stronger binding) (broad panel of kinases [6]; ABL1(F317I)-nonphosphorylated): 0.15%; percent of control binding remaining (lower = stronger binding) (broad panel of kinases [6]; ABL1(F317I)-phosphorylated): 5.4%; percent of control binding remaining (lower = stronger binding) (broad panel of kinases [17]): 99%; percent of control binding remaining (lower = stronger binding) (broad panel of kinases [20]): 0.65%; percent of control binding remaining (lower = stronger binding) (broad panel of kinases [24]): 97%; percent of control binding remaining (lower = stronger binding) (broad panel of kinases [25]): 92%; % change compared to control (broad panel of kinases [26]): 100%; percent of control binding remaining (lower = stronger binding) (broad panel of kinases [27]): 92%; percent of control binding remaining (lower = stronger binding) (broad panel of kinases [28]): 100%; percent of control binding remaining (lower = stronger binding) (broad panel of kinases [29]): 0%; percent of control binding remaining (lower = stronger binding) (broad panel of kinases [30]): 100%; percent of control binding remaining (lower = stronger binding) (broad panel of kinases [31]): 100%; percent of control binding remaining (lower = stronger binding) (broad panel of kinases [32]): 97%; percent of control binding remaining (lower = stronger binding) (broad panel of kinases [33]): 100%; percent of control binding remaining (lower = stronger binding) (broad panel of kinases [34]): 93%; percent of control binding remaining (lower = stronger binding) (broad panel of kinases [35]): 75%; percent of control binding remaining (lower = stronger binding) (broad panel of kinases [36]): 95%; percent of control binding remaining (lower = stronger binding) (broad panel of kinases [37]): 83%
2 | C=CC(=O)N1CC[C@H](Nc2nccc(Nc3ncc(C(=O)Nc4c(C)cccc4C)s3)n2)C1 [Example I-3] | 74% | 100% | 82% | 76% | 100% | 97% | 93% | 100% | 70% | 0.4% | 9.3% | 0% | 94% | 100% | 42% | 74% | 100% | 49% | 100% | 88% | % change compared to control (broad panel of kinases [6]; ABL1(F317I)-nonphosphorylated): 1.2%; % change compared to control (broad panel of kinases [6]; ABL1(F317I)-phosphorylated): 5.2%; % change compared to control (broad panel of kinases [17]): 100%; % change compared to control (broad panel of kinases [20]): 0.55%; percent of control binding remaining (lower = stronger binding) (broad panel of kinases [24]): 94%; percent of control binding remaining (lower = stronger binding) (broad panel of kinases [25]): 100%; % change compared to control (broad panel of kinases [26]): 95%; percent of control binding remaining (lower = stronger binding) (broad panel of kinases [27]): 78%; percent of control binding remaining (lower = stronger binding) (broad panel of kinases [28]): 100%; percent of control binding remaining (lower = stronger binding) (broad panel of kinases [29]): 0%; percent of control binding remaining (lower = stronger binding) (broad panel of kinases [30]): 100%; percent of control binding remaining (lower = stronger binding) (broad panel of kinases [31]): 100%; percent of control binding remaining (lower = stronger binding) (broad panel of kinases [32]): 91%; percent of control binding remaining (lower = stronger binding) (broad panel of kinases [33]): 98%; percent of control binding remaining (lower = stronger binding) (broad panel of kinases [34]): 96%; percent of control binding remaining (lower = stronger binding) (broad panel of kinases [35]): 86%; percent of control binding remaining (lower = stronger binding) (broad panel of kinases [36]): 100%; percent of control binding remaining (lower = stronger binding) (broad panel of kinases [37]): 91%
